Test results taken from patent US5422249A, “Process for the manufacture of thrombin inhibitors” (Ciba-Geigy Corporation, priority 1984, dated 1995).

What was measured:
[1] = system: other enzymes of the blood coagulation cascade; assay: action on other enzymes/proteinases of the blood coagulation system; format: biochemical; conditions: desulphatohirudin
toxicity in rats = format: in vivo; conditions: dose 1 g/kg
[2] = tolerability (hypersensitivity, allergic reactions, harmlessness); conditions: in vivo
[3] = system: thrombin from human plasma; assay: thrombin-inhibition test with Chromozym TH; format: biochemical; conditions: for Thrombin inhibition (%): Experimental conditions No. 1, Table 1
Experimental: The cells (50 ml of the growing culture) are harvested and resuspended in 5 ml of a solution of 50 mM tris.HCl (pH 8.0) and 30 mM NaCl. Subsequently, the suspension is shaken with 5 g of cooled glass beads (diameter 0.5 mm), or by the addition of lysozyme (Boehringer), final concentration 1 mg/ml, at intervals during 30 to 45 minutes on a Multi-Tube Vortexer at high intensity. 0.5 ml of 2% acetic acid are added to 0.5 ml of the mixture which is then centrifuged at 12,000 revs/min for 20 minutes at 4° C. The supernatant solution is examined for hirudin activity (inhibition of thrombin). The thrombin-inhibition test is carried out as follows:
The test is based on the determination of the enzymatic removal of p-nitroaniline from the substrate Chromozym TH (tosyl-glycyl-prolyl-arginine-4-nitroanilide-acetate). […] The reaction time is 2 hours at 37° C. in the incubation chamber. For the test, 20 μl of the solution to be determined is diluted with 30 μl of filling buffer (0.2M tris.HCl pH 7.5, 1M NaCl, 100 μg/ml bovine serum albumin), and 20 μl of enzyme solution [10 mg of lyophilised thrombin from human plasma (Boehringer) dissolved in 1 ml of bidistilled water and diluted approximately 1:400 with the above filling buffer] and 150 μof substrate solution [[…] chromozym TH (Boehringer) dissolved in 4 ml of bidistilled water and diluted 1:15 with the above filling buffer] are added. All solutions are measured against a blank solution consisting of 70 μl of filling buffer (see above) and 150 μl of substrate solution and against an enzyme control solution consisting of 50 μl of filling buffer, 20 μl of enzyme solution and 150 μl of substrate solution. […] The thrombin inhibition (as a %) of the samples is calculated in accordance with the following formula: [formula]

[4] = system: other enzymes of the blood coagulation cascade; conditions: natural hirudin; cited from earlier work
[5] = intravenously to dogs, even in high doses; cited from earlier work
[6] = system: experimental thrombosis (induced either by stasis or by the injection of thrombin), endotoxin shock, DIC; conditions: cited from earlier work

Substance | specificity to thrombin / interactions with other proteinases of the blood coagulation system [1] | active toxicity (toxicity in rats) | hypersensitivity reactions or allergic reactions [2] | thrombin inhibition ([3]; HPLC fraction from S. cerevisiae GRF18/pJDB207R/PH05-HIR, conditions as in Example 26a) [%] | Thrombin inhibition (%) ([3]; RP-HPLC fractions) | Thrombin inhibition (%) ([3]; RP-HPLC fractions, listed as Fr 14) | Thrombin-inhibition % ([3]; RP-HPLC fractions, Experimental conditions No. 2, Table 2) [%] | inhibition of other enzymes of the blood coagulation cascade [4] | effect on heart rate, respiration, blood pressure, thrombocyte count, fibrinogen and haemoglobin [5] | direct comparison tests with heparin ([6]; in vivo) | efficacy in experimental thrombosis, endotoxin shock and DIC ([6]; rats, pigs and dogs)
desulphatohirudin | completely specific to thrombin | no toxic effects | no hypersensitivity reactions or allergic reactions | 89.6 | 86 | 79 | 97.3 ± 2 |  |  |  | 
hirudin |  |  |  |  |  |  |  | not inhibited | No effect | superior to heparin | effective
